# Results: patent US20120115878A1, “SALT(S) OF 7-CYCLOPENTYL-2-(5-PIPERAZIN-1-YL-PYRIDIN-2-YLAMINO)-7H-PYRROLO[2,3-D]PYRIMIDINE-6-CARBOXYLIC ACID DIMETHYLAMIDE AND PROCESSES OF MAKING THEREOF” (priority 2010, published 2012)
# What was measured:
# [1] = Physical form characterization (XRPD) after DVS exposure to 80% RH
# [2] = Dynamic Vapor Sorption (DVS) isotherm, 0-80-0% RH cycle; format: physicochemical; conditions: for Change In Mass (%) Desorption / Change In Mass (%) Hysteresis: 0-80-0% RH cycle, Cycle 1
# [3] = Physical form characterization (XRPD, DSC, TGA) after DVS exposure to 90% RH; format: physicochemical
# [4] = Dynamic Vapor Sorption (DVS) isotherm, 0-90-0% RH cycle, two cycles; format: physicochemical
smiles,measurement,setting,value
"CN(C)C(=O)c1cc2cnc(Nc3ccc(N4CCNCC4)cn3)nc2n1C1CCCC1.O=C(O)CCC(=O)O [non-hydrate form, succinate salt of 7-Cyclopentyl-2-(5-piperazin-1-yl-pyridin-2-ylamino)-7H-pyrrolo[2,3-d]pyrimidine-6-carboxylic acid dimethylamide]",stability,[1]; general statement,good stability
same,hygroscopicity,[2]; general statement,non-hygroscopicity
"CN(C)C(=O)c1cc2cnc(Nc3ccc(N4CCNCC4)cn3)nc2n1C1CCCC1.O=C(O)CCC(=O)O [Compound of Formula (II), 7-Cyclopentyl-N,N-dimethyl-2-(5-(piperazin-1-yl)pyridin-2-ylamino)-7H-pyrrolo[2,3-d]pyrimidine-6-carboxamide succinate]",physical form upon exposure to 80% RH,[1]; XRPD after DVS 0-80-0% RH,stability of the physical form
same,converted from the non-hydrate form to hydrate form,[1]; at 80% RH,about 0.52%
same,physical form upon exposure to 90% RH,"[3]; XRPD, DSC, TGA after DVS 0-90-0% RH",change in physical form
same,weight loss at endothermic transition,"[3]; around 100° C., after exposure to 90% RH",3%
same,converted from the non-hydrate form to hydrate form,[3]; at 90% RH,about 7.35%
same,moisture absorbed,[4]; at 90% RH in each cycle (0 to 90 to 0% RH),up to 2%
same,hygroscopic behavior,[4]; at high humidity conditions (90% RH),slight hygroscopic behavior
same,Change In Mass (%) Desorption,[2]; target RH 0.0%,0.0434%
same,Change In Mass (%) Desorption,[2]; target RH 10.0%,0.2958%
same,Change In Mass (%) Hysteresis,[2]; target RH 10.0%,0.0871%
same,Change In Mass (%) Desorption,[2]; target RH 20.0%,0.3436%
same,Change In Mass (%) Hysteresis,[2]; target RH 20.0%,0.0708%
same,Change In Mass (%) Desorption,[2]; target RH 30.0%,0.3806%
same,Change In Mass (%) Desorption,[2]; target RH 40.0%,0.4037%
same,Change In Mass (%) Hysteresis,[2]; target RH 40.0%,0.0133%
same,Change In Mass (%) Desorption,[2]; target RH 50.0%,0.4311%
same,Change In Mass (%) Hysteresis,[2]; target RH 50.0%,0.0074%
same,Change In Mass (%) Desorption,[2]; target RH 60.0%,0.4614%
same,Change In Mass (%) Hysteresis,[2]; target RH 60.0%,0.0140%
same,Change In Mass (%) Desorption,[2]; target RH 70.0%,0.4952%
same,Change In Mass (%) Hysteresis,[2]; target RH 70.0%,0.0159%
same,Change In Mass (%) Desorption,[2]; target RH 80.0%,0.5200%
same,moisture absorbed,[2]; at 80% RH (0 to 80 to 0% RH),up to 0.5%
same,hygroscopic behavior,[2]; printed 'at 80° C.' (0 to 80 to 0% RH cycle),nearly non-hygroscopic behavior
